Counter-ions that a name gives are not always drawn.
Assays:
human S1P5 receptor = molecular target: T1, human S1P5 receptor (Homo sapiens, UniProt Q9H228); experiment: In vitro functional activity (agonism), CHO-human-S1P5-Aequorin assay; format: cell-based; conditions: read-out: S1P5 pEC50 (converted)
T1 construct: host or cells: CHO (AequoScreen recombinant cell line, co-expressing mitochondrially targeted apo-aequorin)
Text: In Vitro Functional Activity (Agonism) on Human S1P5 Receptors
(§1) The CHO-human-S1P5-Aeqorin assay was bought from Euroscreen, Brussels (Euroscreen, Technical dossier, Human Lysophospholid S1P5 (Edg8) receptor, DNA clone and CHO AequoScreen™ recombinant cell-line, catalog no: ES-593-A, September 2006). Human-S1P5-Aequorin cells express mitochondrial targeted apo-Aequorin. Cells have to be loaded with coelanterazine, in order to reconstitute active Aequorin. After binding of agonists to the human S1P5 receptor the intracellular calcium concentration increases and binding of calcium to the apo-Aequorin/coelenterazine complex leads to an oxidation reaction of coelenterazine, which results in the production of apo-Aequorin, coelenteramide, CO2 and light (λmax 469 nm). This luminescent response is dependent on the agonist concentration. Luminescence is measured using the MicroBeta Jet (Perkin Elmer). Agonistic effects of compounds are expressed as pEC50. Compounds were tested at a 10 points half log concentration range, and 3 independent experiments were performed in single point's measurements.

human S1P3 receptor = molecular target: T2, human S1P3 receptor (Homo sapiens, UniProt Q99500); experiment: In vitro functional activity (agonism), CHO-human-S1P3-Aequorin assay; format: cell-based; conditions: read-out: S1P3 pEC50 (converted)
T2 construct: cell line established at Solvay Pharmaceuticals; host or cells: CHO K1 (CHO/Gα16/AEQ/h-S1P3)
T2 sequence (Q99500 whole entry): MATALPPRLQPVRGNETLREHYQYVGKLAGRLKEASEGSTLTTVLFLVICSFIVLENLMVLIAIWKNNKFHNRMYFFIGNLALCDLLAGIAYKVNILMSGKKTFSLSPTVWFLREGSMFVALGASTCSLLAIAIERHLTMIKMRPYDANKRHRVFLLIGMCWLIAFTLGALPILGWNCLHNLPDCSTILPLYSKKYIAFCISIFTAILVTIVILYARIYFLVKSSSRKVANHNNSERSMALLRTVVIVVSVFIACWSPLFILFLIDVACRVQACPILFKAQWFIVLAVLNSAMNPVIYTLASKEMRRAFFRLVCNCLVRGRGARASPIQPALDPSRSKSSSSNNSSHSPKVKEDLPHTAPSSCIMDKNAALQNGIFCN
Text: In Vitro Functional Activity (Agonism) on Human S1P3 Receptors
The CHO-human-S1P3-Aeqorin assay (CHO/Gα16/AEQ/h-S1P3) was established at Solvay Pharmaceuticals. The plasmid DNA coding for the S1P3 receptor (accession number in GenBank NM_005226 was purchased from UMR cDNA resource Centre (Rolla, Mo.). The pcDNA3.1/hS1P3 construct carrying the mitochondrially targeted apo-Aeqorin and Gα16 protein was transfected in CHO K1 cell-line.
as §1, with “Human-S1P3-Aequorin” for “The CHO-human-S1P5-Aeqorin assay was bought from Euroscreen, Brussels (Euroscreen, Technical dossier, Human Lysophospholid S1P5 (Edg8) receptor, DNA clone and CHO AequoScreen™ recombinant cell-line, catalog no: ES-593-A, September 2006). Human-S1P5-Aequorin”, “S1P3” for “S1P5”

human S1P1 = molecular target: T3, human S1P1 (Homo sapiens, UniProt P21453); experiment: In vitro functional activity (agonism), CHO-K1-human S1P1 cAMP assay; format: cell-based; conditions: read-out: S1P1 pEC50 (converted)
T3 construct: host or cells: CHO-K1
T3 sequence (P21453 whole entry): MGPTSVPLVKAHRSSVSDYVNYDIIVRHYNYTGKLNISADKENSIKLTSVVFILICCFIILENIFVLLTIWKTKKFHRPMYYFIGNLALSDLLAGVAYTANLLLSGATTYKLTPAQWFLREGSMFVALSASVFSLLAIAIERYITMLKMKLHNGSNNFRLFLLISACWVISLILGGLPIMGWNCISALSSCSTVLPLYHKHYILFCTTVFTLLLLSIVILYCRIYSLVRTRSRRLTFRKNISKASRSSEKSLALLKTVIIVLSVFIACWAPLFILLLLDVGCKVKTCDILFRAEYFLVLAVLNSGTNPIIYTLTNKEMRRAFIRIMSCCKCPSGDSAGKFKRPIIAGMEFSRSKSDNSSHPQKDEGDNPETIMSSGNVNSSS
Protocol: In Vitro Functional Activity (Agonism) on Human S1P1 Receptors
The CHO-K1-Human S1P1-c-AMP assay was performed at Euroscreenfast, Brussels (Euroscreen, Human S1P1 coupling Gi/o), (Edg1) receptor, catalog no: FAST-0197C, December 2009).
Recombinant CHO-K1 cells expressing human S1P1, grown to mid-log Phase in culture media without antibiotics, detached, centrifuged and re-suspended. For agonist testing cells are mixed with compound and Forskolin and incubated at room temperature. Cells are lyses and cAMP concentration are estimated, according to the manufacturer specification, With the HTRF kit from CIS-BIO International (cat no 62AM2PEB).
Agonistic effects of compounds are expressed as a percentage of the activity of the reference compound at its EC100 concentration, EC50) is calculated and results are reported as pEC50. Compounds were tested at a 10 points half log concentration range duplicated in 1 experiment.

C57BL/6J mice = experiment: In vivo therapeutic model; T-maze spontaneous alternation; conditions: 12-month old male C57BL6J mice; 10 mg/kg/day p.o. for 21 days and on test day at t=-30 min
Protocol: FIG. 1 Percentage of alternation of young and old C57BL/6J male mice in the T-maze with either vehicle (control groups) or compound 34b (10 mg/kg; p.o.)
In Vivo Therapeutic Model; T-Maze
Age-related memory deficits occur in humans and rodents. Spontaneous alternation is the innate tendency of rodents to alternate free choices in a T-maze over a series of successive runs. This sequential procedure relies on working memory and is sensitive to various pharmacological manipulations affecting memory processes (Aging and the physiology of spatial memory. Barnes C. A. Neurobiol. Aging 1988:563-8; Dember W N, Fowler H. Spontaneous alternation behavior. Psychol. Bull. 1958, 55(6):412-427; Gerlai R. A new continuous alternation task in T-maze detects hippocampal dysfunction in mice. A strain comparison and lesion study. Behav Brain Res 1998 95(1):91-101).
For this study, male C57BL/6J mice of 2 months or 12 months old were used in the spontaneous alternation task in the T-maze. In short, mice were subjected to 1 session containing 15 trials, consisting of 1 “forced-choice” trial, followed by 14 “free-choice” trials. The animal was considered as entering one of the arms of the maze when all four paws are placed within this arm. […] The percentage of alternation over the 14 free-choice trials was determined for each mouse and was used as an index of working memory performance. […]

T1 sequence (Q9H228 whole entry): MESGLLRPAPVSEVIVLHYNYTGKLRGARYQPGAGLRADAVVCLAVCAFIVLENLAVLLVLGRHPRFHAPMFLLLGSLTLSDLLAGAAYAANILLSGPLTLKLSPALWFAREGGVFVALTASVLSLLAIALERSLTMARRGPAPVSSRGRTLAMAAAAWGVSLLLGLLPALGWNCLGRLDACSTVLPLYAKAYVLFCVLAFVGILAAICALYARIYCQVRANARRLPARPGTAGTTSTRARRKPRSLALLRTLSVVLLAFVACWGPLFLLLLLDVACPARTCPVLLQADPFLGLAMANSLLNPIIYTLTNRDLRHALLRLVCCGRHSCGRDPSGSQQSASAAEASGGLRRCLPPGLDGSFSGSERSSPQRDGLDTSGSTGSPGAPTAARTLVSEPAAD

SMILES	EC50 (human S1P5 receptor) [nM]	EC50 (human S1P3 receptor) [nM]	melting point [°C]	EC50 (human S1P1) [nM]	reversal of the age-related cognitive decline (percentage of alternation in T-maze) (C57BL/6J mice) [%]
CCCCCCCCOc1cccc(C2CN(CCC(=O)O)CCO2)c1.Cl (centres unmarked) [Compound 231, 3-[2-(3-Octyloxy-phenyl)-morpholin-4-yl]-propionic acid hydrochloride]	251	> 10000	218 to 220	–	–
Cc1cc(OCc2c(Cl)cccc2Cl)ccc1C1CN(CCC(=O)O)CCO1 (centres unmarked) [Compound 130, 3-{2-[4-(2,6-Dichloro-benzyloxy)-2-methyl-phenyl]-morpholin-4-yl}-propionic acid trifluoroacetic acid salt]	79.4	> 31600	–	> 3160	–
Cc1cccc2c1C(Oc1ccc(C3CN(CCC(=O)O)CCO3)cc1)CC2 (centres unmarked) [Compound 220, 3-{2-[4-(7-Methyl-indan-1-yloxy)-phenyl]-morpholin-4-yl}-propionic acid]	158	251	134 to 139	–	–
Clc1cccc(Cl)c1COc1ccc(C2CN(CCc3nn[nH]n3)CCO2)cc1 (centres unmarked) [Compound 228, 2-[4-(2,6-Dichloro-benzyloxy)-phenyl]-4-[2-(2H-tetrazol-5-yl)-ethyl]-morpholine hydrochloride]	158	> 10000	–	> 3160	–
CCCCCCCCOc1ccc(C2CN(CCC(=O)O)CCO2)cc1 (centres unmarked) [Compound 41, 3-(2-(4-Octyloxy-phenyl)-morpholin-4-yl)-propionic acid hydro-chloride]	251	2510	–	> 3160	–

Now from value to compound, other results behind:

EC50 (human S1P5 receptor) [nM]	EC50 (human S1P3 receptor) [nM]	melting point [°C]	EC50 (human S1P1) [nM]	SMILES	reversal of the age-related cognitive decline (percentage of alternation in T-maze) (C57BL/6J mice) [%]
158	1580	178.5 to 180.5	1580	CCCCCCCCOc1ccc(C2CN(CCC(=O)O)CCO2)c(C(F)(F)F)c1.Cl (centres unmarked) [Compound 189, 3-[2-(4-Octyloxy-2-trifluoromethyl-phenyl)-morpholin-4-yl]-propionic acid hydrochloride]	–
631	> 10000	170 to 172	–	COc1cc(C2CN(CCC(=O)O)CCO2)ccc1OCc1ccccc1C(F)(F)F.Cl (centres unmarked) [Compound 66, 3-{2-[3-Methoxy-4-(2-trifluoromethyl-benzyloxy)-phenyl]-morpholin-4-yl}-propionic acid hydrochloride]	–
126	> 10000	174.5 to 178	> 3160	Cl.O=C(O)CCN1CCOC(c2ccc(OCc3c(Cl)cccc3Cl)cc2F)C1 (centres unmarked) [Compound 179, 3-{2-[4-(2,6-Dichloro-benzyloxy)-2-fluoro-phenyl]-morpholin-4-yl}-propionic acid hydrochloride]	–
100	> 10000	–	> 3160	O=C(O)CCN1CCOC(c2ccc(OCc3c(Cl)cccc3C(F)(F)F)cc2)C1 (centres unmarked) [Compound 153, 3-{2-[4-(2-Chloro-6-trifluoromethyl-benzyloxy)-phenyl]-morpholin-4-yl}-propionic acid hydrochloride]	–
31.6	–	–	> 3160	Cl.O=C(O)CCN1CCOC(c2ccc(OCc3c(Cl)cccc3Cl)cc2)C1 (single isomer, unassigned; (-)) [Compound 34b, (−)-3-{2-[4-(2,6-Dichloro-benzyloxy)-phenyl]-morpholin-4-yl}-propionic acid hydrochloride]	100
